Where only a bound is given, the exact number is not on record here.

Assay [1] deals with T1, Phosphatidylinositol 4,5-bisphosphate 3-kinase catalytic subunit delta isoform (Homo sapiens) (UniProt O00329).
T1 sequence (whole entry): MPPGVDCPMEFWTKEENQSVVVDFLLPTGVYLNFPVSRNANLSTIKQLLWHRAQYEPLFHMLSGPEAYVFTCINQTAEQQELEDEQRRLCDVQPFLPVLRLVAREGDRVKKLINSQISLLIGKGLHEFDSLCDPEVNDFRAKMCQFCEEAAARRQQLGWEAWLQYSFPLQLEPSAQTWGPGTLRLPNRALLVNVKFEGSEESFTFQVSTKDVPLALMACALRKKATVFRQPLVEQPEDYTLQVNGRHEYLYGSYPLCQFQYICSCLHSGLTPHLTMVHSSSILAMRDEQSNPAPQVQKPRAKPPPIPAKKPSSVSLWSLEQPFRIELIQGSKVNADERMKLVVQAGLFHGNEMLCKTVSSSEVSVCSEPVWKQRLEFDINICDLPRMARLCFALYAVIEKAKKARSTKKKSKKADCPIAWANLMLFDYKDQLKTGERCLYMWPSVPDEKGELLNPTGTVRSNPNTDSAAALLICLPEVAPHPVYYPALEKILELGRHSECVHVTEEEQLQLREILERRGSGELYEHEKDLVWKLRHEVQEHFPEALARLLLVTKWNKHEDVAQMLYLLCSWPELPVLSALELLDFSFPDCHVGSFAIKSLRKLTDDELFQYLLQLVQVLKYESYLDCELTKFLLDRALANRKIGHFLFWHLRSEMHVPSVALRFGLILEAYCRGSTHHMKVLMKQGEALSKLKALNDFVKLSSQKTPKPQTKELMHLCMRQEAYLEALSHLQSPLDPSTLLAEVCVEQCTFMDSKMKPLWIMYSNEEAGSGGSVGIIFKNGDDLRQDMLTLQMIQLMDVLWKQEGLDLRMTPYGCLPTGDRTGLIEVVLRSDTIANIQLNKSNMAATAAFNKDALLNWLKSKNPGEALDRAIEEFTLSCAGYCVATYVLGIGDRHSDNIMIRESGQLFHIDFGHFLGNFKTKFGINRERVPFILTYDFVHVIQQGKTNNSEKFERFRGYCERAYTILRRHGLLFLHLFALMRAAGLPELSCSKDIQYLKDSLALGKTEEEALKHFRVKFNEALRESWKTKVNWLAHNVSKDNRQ
Kind of assay: Selectivity interaction (KinomeScan (DiscoverX)) EUB0000666a PIK3CD. As to conditions: at 10 µM.

In assay [2] the target is Mitogen-activated protein kinase kinase kinase kinase 1 (Homo sapiens) (UniProt Q92918). The experiment in a line: Selectivity interaction (ActivX KiNativ screen (ex vivo kinase selectivity in human PBMCs)) EUB0001619a MAP4K1. In kind it is cell-based. As to conditions: PBMC, at 1 µM.
Assay [3] addresses Ribosomal protein S6 kinase beta-1 (Homo sapiens, UniProt P23443). The experiment in a line: Selectivity interaction (ActivX KiNativ screen (ex vivo kinase selectivity in human PBMCs)) EUB0001619a RPS6KB1. The format is cell-based. As to conditions: PBMC, at 1 µM.
The target of assay [4] is Acetylcholine receptor subunit alpha (Homo sapiens, UniProt P02708). Kind of assay: Selectivity interaction (Nicotinic (CNS) Receptor binding in human IMR32 cells ) EUB0000877a CHRNA1. The format is cell-based, IMR-32.
For assay [5], the target named is Glycogen synthase kinase-3 alpha (Homo sapiens, UniProt P49840). The experiment in a line: Selectivity interaction (KinomeScan (DiscoverX)) EUB0001049a GSK3A. Particulars: at 1 µM.
In assay [6] the target is T2, Serine/threonine-protein kinase 36 (Homo sapiens) (UniProt Q9NRP7).
T2 sequence (whole entry): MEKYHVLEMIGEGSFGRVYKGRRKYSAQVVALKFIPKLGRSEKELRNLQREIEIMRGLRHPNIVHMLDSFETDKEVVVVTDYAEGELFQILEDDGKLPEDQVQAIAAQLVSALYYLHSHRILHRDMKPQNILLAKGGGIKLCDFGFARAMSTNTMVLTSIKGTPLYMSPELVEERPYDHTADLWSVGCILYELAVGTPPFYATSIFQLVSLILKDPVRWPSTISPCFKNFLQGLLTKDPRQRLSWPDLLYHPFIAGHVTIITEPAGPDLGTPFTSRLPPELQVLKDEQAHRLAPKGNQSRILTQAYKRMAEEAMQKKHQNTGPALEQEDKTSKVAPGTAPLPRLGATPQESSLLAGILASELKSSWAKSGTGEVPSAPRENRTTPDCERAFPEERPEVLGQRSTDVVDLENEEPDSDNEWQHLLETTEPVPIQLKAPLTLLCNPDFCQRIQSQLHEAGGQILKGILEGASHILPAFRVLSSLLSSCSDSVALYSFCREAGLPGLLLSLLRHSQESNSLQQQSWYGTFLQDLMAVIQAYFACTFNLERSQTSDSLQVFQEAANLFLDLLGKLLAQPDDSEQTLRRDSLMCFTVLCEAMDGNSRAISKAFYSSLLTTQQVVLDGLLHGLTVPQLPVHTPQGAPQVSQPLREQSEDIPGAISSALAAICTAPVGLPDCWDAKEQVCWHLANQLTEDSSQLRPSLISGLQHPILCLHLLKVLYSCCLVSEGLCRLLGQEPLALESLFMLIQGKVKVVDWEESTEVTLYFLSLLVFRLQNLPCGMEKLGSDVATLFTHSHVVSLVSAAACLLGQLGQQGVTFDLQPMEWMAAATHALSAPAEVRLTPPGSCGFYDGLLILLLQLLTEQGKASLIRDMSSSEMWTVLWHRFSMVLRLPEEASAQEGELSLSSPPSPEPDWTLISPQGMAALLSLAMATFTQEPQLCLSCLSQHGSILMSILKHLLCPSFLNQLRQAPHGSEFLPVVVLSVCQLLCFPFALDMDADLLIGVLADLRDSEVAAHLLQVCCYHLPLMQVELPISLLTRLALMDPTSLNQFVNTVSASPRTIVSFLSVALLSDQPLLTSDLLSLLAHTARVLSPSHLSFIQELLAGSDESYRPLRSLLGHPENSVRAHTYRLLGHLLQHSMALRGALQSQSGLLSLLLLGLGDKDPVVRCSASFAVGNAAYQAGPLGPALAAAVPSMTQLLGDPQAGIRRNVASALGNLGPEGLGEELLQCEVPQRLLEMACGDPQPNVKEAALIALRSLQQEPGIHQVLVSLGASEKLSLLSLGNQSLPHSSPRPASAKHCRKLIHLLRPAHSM
The experiment in a line: Selectivity interaction (KinomeScan (DiscoverX)) EUB0000695a STK36. As to conditions: at 100 nM.

Assay [7] concerns the target Voltage-dependent L-type calcium channel subunit alpha-1S (Homo sapiens) (UniProt Q13698). The experiment in a line: Selectivity interaction (Eurofins CEREP Diversity Profile (receptors and ion channels)) EUB0000279b CACNA1S. Particulars: at 10 µM.
For assay [8], the target named is Gastrin/cholecystokinin type B receptor (Homo sapiens) (UniProt P32239). The experiment in a line: Selectivity interaction (Eurofins CEREP Diversity Profile (receptors and ion channels)) EUB0000279b CCKBR. Particulars: at 10 µM.
Assay [9] in a line: Selectivity interaction (KinomeScan (DiscoverX)) EUB0000092b CDK2H. Particulars: at 10 µM.

Chain of Glycogen synthase kinase-3 alpha (P49840 2-483 limits assumed): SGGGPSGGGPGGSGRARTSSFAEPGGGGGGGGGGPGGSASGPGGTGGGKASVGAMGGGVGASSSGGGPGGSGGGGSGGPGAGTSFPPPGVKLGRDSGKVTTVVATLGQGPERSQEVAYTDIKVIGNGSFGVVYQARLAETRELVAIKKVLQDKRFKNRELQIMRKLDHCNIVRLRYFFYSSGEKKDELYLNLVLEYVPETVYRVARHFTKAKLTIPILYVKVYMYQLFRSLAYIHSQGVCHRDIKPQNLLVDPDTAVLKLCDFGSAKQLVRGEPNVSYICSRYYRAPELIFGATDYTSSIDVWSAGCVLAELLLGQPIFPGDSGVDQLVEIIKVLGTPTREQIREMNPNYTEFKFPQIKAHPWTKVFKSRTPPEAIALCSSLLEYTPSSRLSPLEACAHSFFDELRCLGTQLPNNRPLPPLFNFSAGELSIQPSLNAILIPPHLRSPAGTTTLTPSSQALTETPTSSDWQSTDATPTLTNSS
Chain of Acetylcholine receptor subunit alpha (P02708 whole entry): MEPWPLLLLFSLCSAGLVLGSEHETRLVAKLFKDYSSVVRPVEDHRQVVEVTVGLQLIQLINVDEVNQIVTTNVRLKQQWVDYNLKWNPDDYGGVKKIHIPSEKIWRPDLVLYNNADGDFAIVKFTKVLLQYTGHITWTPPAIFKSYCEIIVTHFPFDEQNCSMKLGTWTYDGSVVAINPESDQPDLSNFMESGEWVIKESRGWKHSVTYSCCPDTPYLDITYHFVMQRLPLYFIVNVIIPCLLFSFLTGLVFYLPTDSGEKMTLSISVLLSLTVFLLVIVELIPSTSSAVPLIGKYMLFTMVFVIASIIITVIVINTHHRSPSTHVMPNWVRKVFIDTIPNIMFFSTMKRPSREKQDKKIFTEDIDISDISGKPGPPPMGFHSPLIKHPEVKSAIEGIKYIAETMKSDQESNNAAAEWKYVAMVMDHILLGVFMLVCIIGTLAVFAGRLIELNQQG
Chain of Ribosomal protein S6 kinase beta-1 (P23443 whole entry, looked up): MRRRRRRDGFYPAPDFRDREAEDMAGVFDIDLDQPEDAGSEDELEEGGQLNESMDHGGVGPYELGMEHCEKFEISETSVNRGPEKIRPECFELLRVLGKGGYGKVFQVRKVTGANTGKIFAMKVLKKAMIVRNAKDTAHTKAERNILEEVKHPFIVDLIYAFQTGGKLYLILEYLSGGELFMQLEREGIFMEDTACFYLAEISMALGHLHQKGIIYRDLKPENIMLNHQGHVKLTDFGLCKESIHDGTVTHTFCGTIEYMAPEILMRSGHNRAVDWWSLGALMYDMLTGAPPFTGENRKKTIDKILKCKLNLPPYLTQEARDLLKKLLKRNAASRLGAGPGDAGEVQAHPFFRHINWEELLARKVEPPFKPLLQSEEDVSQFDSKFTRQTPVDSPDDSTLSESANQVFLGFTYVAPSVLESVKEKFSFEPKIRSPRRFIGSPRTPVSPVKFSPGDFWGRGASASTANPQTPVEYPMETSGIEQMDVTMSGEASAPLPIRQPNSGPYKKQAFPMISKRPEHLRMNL
Chain of Voltage-dependent L-type calcium channel subunit alpha-1S (Homo sapiens) (Q13698 whole entry): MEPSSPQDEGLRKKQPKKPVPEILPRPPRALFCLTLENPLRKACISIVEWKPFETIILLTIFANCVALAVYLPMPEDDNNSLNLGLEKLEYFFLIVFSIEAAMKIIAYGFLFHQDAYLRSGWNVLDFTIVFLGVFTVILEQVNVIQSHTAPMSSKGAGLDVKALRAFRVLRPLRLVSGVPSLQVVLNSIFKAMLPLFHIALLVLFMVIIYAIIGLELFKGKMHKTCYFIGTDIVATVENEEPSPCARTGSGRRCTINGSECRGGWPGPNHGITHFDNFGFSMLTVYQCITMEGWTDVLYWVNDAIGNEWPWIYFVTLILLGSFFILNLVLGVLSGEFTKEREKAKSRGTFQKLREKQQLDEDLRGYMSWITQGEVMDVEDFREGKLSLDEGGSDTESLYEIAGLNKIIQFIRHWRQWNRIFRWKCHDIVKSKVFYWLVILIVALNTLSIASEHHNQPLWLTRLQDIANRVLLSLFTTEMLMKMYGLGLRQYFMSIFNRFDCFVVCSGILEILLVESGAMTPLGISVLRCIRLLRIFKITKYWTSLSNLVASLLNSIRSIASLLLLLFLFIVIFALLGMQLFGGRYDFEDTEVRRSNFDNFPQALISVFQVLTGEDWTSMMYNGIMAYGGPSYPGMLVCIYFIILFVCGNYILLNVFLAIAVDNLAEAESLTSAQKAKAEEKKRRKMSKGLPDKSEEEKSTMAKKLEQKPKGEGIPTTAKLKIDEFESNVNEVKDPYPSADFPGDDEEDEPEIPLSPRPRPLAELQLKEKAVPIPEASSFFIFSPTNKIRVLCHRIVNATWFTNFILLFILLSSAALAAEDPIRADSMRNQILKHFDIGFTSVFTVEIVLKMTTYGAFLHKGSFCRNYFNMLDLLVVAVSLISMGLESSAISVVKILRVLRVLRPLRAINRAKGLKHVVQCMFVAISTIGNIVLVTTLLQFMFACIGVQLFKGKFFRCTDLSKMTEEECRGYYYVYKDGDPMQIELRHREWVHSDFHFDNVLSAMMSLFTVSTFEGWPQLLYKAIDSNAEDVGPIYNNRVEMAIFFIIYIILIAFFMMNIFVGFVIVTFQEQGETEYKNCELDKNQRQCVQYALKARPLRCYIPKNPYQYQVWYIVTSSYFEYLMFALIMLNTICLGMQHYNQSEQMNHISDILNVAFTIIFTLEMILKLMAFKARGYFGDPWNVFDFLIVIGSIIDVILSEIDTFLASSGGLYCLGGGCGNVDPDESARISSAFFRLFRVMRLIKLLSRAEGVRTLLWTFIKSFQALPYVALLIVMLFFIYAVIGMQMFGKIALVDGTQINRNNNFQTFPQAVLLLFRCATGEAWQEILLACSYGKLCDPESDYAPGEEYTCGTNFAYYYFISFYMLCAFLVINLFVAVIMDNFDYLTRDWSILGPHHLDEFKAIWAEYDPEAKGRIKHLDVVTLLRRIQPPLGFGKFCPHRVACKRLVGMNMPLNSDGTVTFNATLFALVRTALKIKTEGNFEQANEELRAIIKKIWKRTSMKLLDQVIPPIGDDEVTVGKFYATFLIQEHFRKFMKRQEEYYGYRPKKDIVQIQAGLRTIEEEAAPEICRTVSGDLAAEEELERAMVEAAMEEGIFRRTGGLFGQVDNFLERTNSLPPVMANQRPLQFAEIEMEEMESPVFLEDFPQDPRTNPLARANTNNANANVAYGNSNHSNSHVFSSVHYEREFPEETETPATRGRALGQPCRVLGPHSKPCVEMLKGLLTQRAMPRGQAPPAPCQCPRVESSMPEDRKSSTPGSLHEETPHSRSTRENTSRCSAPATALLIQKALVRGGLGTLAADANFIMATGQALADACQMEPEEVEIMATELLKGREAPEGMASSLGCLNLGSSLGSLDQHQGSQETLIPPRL
Chain of Gastrin/cholecystokinin type B receptor (Homo sapiens) (P32239 whole entry): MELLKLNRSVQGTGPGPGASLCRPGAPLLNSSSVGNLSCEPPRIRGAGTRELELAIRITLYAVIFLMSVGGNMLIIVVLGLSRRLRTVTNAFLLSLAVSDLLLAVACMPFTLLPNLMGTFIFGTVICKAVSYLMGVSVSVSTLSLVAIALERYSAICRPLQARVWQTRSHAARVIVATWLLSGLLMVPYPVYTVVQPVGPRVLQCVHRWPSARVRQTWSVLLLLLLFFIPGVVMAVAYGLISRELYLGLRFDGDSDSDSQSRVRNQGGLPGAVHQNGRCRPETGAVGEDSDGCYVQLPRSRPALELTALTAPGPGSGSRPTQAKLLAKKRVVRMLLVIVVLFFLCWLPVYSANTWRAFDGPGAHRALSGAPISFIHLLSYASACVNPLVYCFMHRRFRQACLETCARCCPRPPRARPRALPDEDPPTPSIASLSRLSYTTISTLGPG
Chain of Mitogen-activated protein kinase kinase kinase kinase 1 (Homo sapiens) (Q92918 whole entry, looked up): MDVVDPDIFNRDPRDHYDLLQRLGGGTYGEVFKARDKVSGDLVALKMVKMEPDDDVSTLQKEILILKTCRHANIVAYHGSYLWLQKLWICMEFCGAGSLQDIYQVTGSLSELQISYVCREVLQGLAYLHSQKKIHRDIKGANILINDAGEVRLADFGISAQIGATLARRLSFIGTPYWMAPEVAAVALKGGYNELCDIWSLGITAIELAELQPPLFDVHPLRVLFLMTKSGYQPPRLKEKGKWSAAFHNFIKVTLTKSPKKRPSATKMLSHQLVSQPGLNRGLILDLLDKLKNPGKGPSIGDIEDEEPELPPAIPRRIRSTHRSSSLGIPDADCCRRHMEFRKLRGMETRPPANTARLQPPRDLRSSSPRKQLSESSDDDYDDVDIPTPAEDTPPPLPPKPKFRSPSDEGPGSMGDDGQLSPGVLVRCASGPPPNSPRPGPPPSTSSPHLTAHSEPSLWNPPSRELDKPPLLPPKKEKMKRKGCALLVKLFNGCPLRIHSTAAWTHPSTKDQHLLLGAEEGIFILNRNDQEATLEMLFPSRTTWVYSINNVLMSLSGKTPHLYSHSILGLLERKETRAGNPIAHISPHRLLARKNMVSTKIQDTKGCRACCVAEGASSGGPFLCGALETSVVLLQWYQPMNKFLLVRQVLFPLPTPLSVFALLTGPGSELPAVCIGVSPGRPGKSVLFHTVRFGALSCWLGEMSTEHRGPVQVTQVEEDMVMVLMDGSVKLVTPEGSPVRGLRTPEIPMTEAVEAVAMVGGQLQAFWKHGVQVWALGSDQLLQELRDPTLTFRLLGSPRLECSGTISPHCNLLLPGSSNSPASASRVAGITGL

`O=C(NOC[C@H](O)CO)c1ccc(F)c(F)c1Nc1ccc(I)cc1F` gave a % of control in assay [1] of 40%.

For `N#Cc1cccc(-c2c[nH]c3ncnc(N4CCOCC4)c23)c1`, the % of inhibition was 6% in [2] and -10% in [3].

As usually defined, the IC50 is the concentration at which inhibition is half-maximal. As to `CCC(=O)N1CC[C@H](Nc2ncnc3c2CN(c2cnc(OC)c(C(F)(F)F)c2)CC3)C1` [LENIOLISIB], the IC50 in assay [4] is more than 30 µM.

`COc1cc(Nc2nc(C)cc(-c3cnn4nc(OC)ccc34)n2)cc(C(F)(F)F)c1` registered a % of control in [5] of 100%.

`Cc1cc(F)c(C(=O)Nc2cccc(-c3nncn3C(C)C)n2)cc1-n1cnc(C2CC2)c1`: in assay [6], the % of control came out at 100%.

In the case of `CC(=O)c1cc(-c2ccccc2OCC2CC2)c2ncccn12`, the % of control in [7] is 89%; in assay [8], 95%.

In the case of `CCC(=O)N1CCN(c2ccc(-n3c(=O)ccc4cnc5ccc(-c6cnc7ccccc7c6)cc5c43)cc2C(F)(F)F)CC1`, the % of control in [9] came to 97%.

The record behind these values is ChEMBL document CHEMBL5465560, “Selectivity Literature for EUbOPEN Chemogenomic Library” (2024).
